{
  "source": "patent US10561115B2",
  "about": "(priority 2016, dated 2020)",
  "key": {"[1]": {"tested_on": "propiconazole resistant mutants of Chlorella species (PcZ-1)", "assay": "Growth (OD at 750 nm) of PcZ-1 mutant with and without 10 μM propiconazole, compared with wild type", "format": "cell-based, Chlorella sorokiniana", "settings": "for Average % increase PcZ-1 + 10 uM PcZ / % increase PcZ-1 + 10 μM PcZ: PcZ-1 with 10 μM propiconazole vs wild type without propiconazole; for % increase PcZ-1 + 10 μM PcZ: individual replicates, listed as PcZ", "procedure": "(§1) Chlorella sorokiniana cells (Wild type) and propiconazole resistant mutants of Chlorella species (PcZ-1) were inoculated at 0.1-0.15 OD@750 nm (each set in triplicates). To verify the effect of methanol (propiconazole was dissolved in methanol), one set was treated with 0.1% methanol. One set of flasks in triplicate of Wild type and PcZ-1 mutants were inoculated with and without 10 μM propiconazole. After inoculation flasks were kept in 12 h light/12 hour dark cycles of white light in an incubator shaker at 100 rpm. The temperature was 28° C., 70% humidity and 2% ambient CO2. 3 mL sample was removed each day, to determine the Optical density (OD) of the culture at 750 nm. The results obtained are as illustrated in FIG. 1.\nFIG. 1 illustrates a graph of the growth comparison between wild type Chlorella sorokiniana and propiconazole resistant mutants of Chlorella species Chlorella sorokiniana mutant PcZ-1, in the presence of propiconazole, wherein A represents wild type Chlorella sorokiniana grown in the absence of propiconazole, B represents wild type Chlorella sorokiniana grown in the presence of 0.1% methanol, C represents wild type Chlorella sorokiniana grown in the presence of 10 μM propiconazole, D represents PcZ-1 grown in the absence of propiconazole, E represents PcZ-1 grown in the presence of 0.1% methanol, and F represents PcZ-1 grown in the presence of 10 μM propiconazole. […] The propiconazole resistant mutants of Chlorella species (PcZ-1) was not affected by the presence of propiconazole, and continued to grow."}, "[2]": {"tested_on": "wild type Chlorella sorokiniana", "assay": "Growth (OD at 750 nm) of wild type Chlorella sorokiniana in the presence of propiconazole", "format": "cell-based", "settings": "10 μM propiconazole; culture typically crashes after a few days", "procedure": "as §1\nFIG. 1 illustrates a graph of the growth comparison between wild type Chlorella sorokiniana and propiconazole resistant mutants of Chlorella species Chlorella sorokiniana mutant PcZ-1, in the presence of propiconazole, wherein A represents wild type Chlorella sorokiniana grown in the absence of propiconazole, B represents wild type Chlorella sorokiniana grown in the presence of 0.1% methanol, C represents wild type Chlorella sorokiniana grown in the presence of 10 μM propiconazole, D represents PcZ-1 grown in the absence of propiconazole, E represents PcZ-1 grown in the presence of 0.1% methanol, and F represents PcZ-1 grown in the presence of 10 μM propiconazole. […]"}, "grazers": {"tested_on": "grazers", "settings": "general statement, no test described; cited from earlier work"}},
  "note": "Where “and” joins values, the source holds several entries; their conditions need not be identical. Identical values can stand only once.",
  "data": [
    {"compound": "CCCC1COC(Cn2cncn2)(c2ccc(Cl)cc2Cl)O1", "note": "(stereo not drawn) [propiconazole, Propiconazole]", "values": [
      {"measurement": "Growth of PcZ-1 in the presence of propiconazole", "setting": "[1]; 10 μM propiconazole, continued to grow", "result": "not affected"},
      {"measurement": "Average % increase PcZ-1 + 10 uM PcZ", "setting": "[1]; day 4", "result": 60.2, "unit": "%"},
      {"measurement": "% increase PcZ-1 + 10 μM PcZ", "setting": "[1]; day 4", "result": "45.5% and 66.7% and 68.6%"},
      {"measurement": "Average % increase PcZ-1 + 10 uM PcZ", "setting": "[1]; day 6", "result": 27.1, "unit": "%"},
      {"measurement": "% increase PcZ-1 + 10 μM PcZ", "setting": "[1]; day 6", "result": "17.3% and 38.7% and 25.4%"},
      {"measurement": "Average % increase PcZ-1 + 10 uM PcZ", "setting": "[1]; day 7", "result": 21.1, "unit": "%"},
      {"measurement": "% increase PcZ-1 + 10 μM PcZ", "setting": "[1]; day 7", "result": "10.6% and 29.4% and 23.2%"},
      {"measurement": "Growth of the wild type Chlorella sorokiniana in the presence of propiconazole", "setting": "[2]", "result": "inhibited"},
      {"measurement": "Concentration at which propiconazole is a potent grazicide", "setting": "grazers", "result": "≥ 0.5", "unit": "ppm"}
    ]}
  ]
}
